Reference: publication PMC11904948, “Peptide‐Drug Conjugate for Therapeutic Reprogramming of Tumor‐Associated Macrophages in Breast Cancer” (Advanced Science, 2025)
Peptide text beside a SMILES is read from it. * marks the point of attachment. 5FAM = O=C1OC2(c3ccc(O)cc3Oc3cc(O)ccc32)c2ccc(C(=O)*)cc21; Ahx = NCCCCCC(=O)O

Tests used:
[1] = Peptide stability in 4T1 tumor lysate (LC-MS); type: in vitro ADME; details: lysate of 4T1 orthotopic TNBC tumors (mouse), 30 µM peptide, 37 °C, aliquots 0, 10, 30, 60, 180, 1440 min
Protocol: Figure 3 MACTIDE has higher affinity and proteolytic stability than mUNO. A) QCM experiment of MACTIDE, mUNO, and control peptides at a final concentration of 10 µM in PBS on multilayers of PAH/CD206 or control multilayers of PAH/BSA. The black arrow indicates when the peptides were added, blue and red arrows indicate when the washing step with PBS started. B) Integrity of FAM‐MACTIDE and FAM‐mUNO measured by LC‐MS at different time points after incubation of peptides with lysate derived from a 4T1 tumor.
We next evaluated the stability of fluorescein (FAM)‐MACTIDE against proteases from breast tumors. To this end, we incubated both FAM‐MACTIDE and FAM‐mUNO with a tumor lysate obtained from 4T1 orthotopic TNBC tumors using different timepoints and evaluated the integrity of the peptide using liquid chromatography‐mass spectrometry (LC‐MS). We observed that the half‐life of FAM‐MACTIDE in this tumor lysate increased 5‐fold with respect to FAM‐mUNO (Figure 3B).
For peptide stability measurements, 200 µL of freshly prepared tumor lysate was mixed with 50 µL of PBS (as control), 30 µM of FAM‐mUNO, or 30 µM of FAM‐MACTIDE and incubated at 37 °C. 40 µL aliquots were taken at 0, 10, 30, 60, 180 and 1440 min. 80 µL of methanol was added to each aliquot and it was immediately stored at −80 °C until analysis later on the same or the following day. […]

CD206^+ TAM = test: In vivo homing to CD206+ TAM in orthotopic 4T1 tumor-bearing mice; parameters: species or system Balb/c mice; details: 30 nmol, 24 h circulation
Protocol: (§1) We subsequently determined the blood half‐life of FAM‐MACTIDE using i.v. and i.p. administration (Figure S1, Supporting Information).
Thirty nmol of FAM‐MACTIDE or FAM‐mUNO were administered i.v. (A), i.p. (B), or orally (C) and left to circulate for 24 h. After 24 h, mice were sacrificed, and the organs were collected, fixed, cryoprotected, sectioned, and immunostained for FAM (shown in green) and CD206 (shown in red). The CD206/FAM colocalization indices were calculated from representative images from n = 3 tumors, using Fiji (Mandler's tM2 index) and the signal intensity per CD206^+ TAM (i.p. administration) was quantified using ImageJ (B). Scale bars = 100 µm. ^* p ≤ 0.05, ^** p ≤ 0.01 (Anova one‐way fisher LSD).
(§2) When tumors reached ≈100 mm^3, 30 nmol of FAM‐MACTIDE or FAM‐mUNO was injected i.p., i.v. or through oral gavage and circulated for 24 h. […] Blocks were cryosectioned at 10 µm thickness on Superfrost+ slides (ThermoFisher Scientific, catalog no. J1800AMNZ) and stored at −20 °C or used instantly. Immunofluorescence staining was performed as described previously.^[ [5] ^] […] Slides were counterstained using 4,6‐diamidino‐2‐phenylindole (DAPI, 5 µg mL^−1 in PBS, Sigma–Aldrich, catalog no. D9542‐5MG). […] The colocalization analysis was performed using the “Coloc2” plugin in the Fiji program using Mandler's tM2 index. Values were obtained from at least three individual images per mouse per group and their average values were plotted. The FAM mean signal per CD206^+ cell analysis was measured using Fiji, taking the mean FAM signal, and dividing it by the number of CD206^+ cells. Average values were obtained from four images per mouse for n = 3 mice.

[2] = Liver accumulation in the biodistribution study; type: in vivo, Balb/c mice; details: i.v., i.p. and oral, 30 nmol, 24 h circulation, immunostaining, n = 3 mice
Protocol: as §1, §2

[3] = Blood half-life by plasma fluorescence; type: in vivo, mice; details: i.v. and i.p., 30 nmoles, plasma fluorescence in FAM channel, n = 3; compared with FAM-mUNO values of ref 5
Excerpt: We subsequently determined the blood half‐life of FAM‐MACTIDE using i.v. and i.p. administration (Figure S1, Supporting Information). […] Importantly, we observed low liver accumulation with these administration routes for both peptides (Figure S2, Supporting Information).
Figure S1.: Pharmacokinetics of i.p. and i.v. administered FAM-MACTIDE (30 nmoles) analyzed by detecting plasma fluorescence in the FAM channel at different timepoints (n=3).

[4] = general statement, no reference given; cited from earlier work
Excerpt: Verteporfin (V), is a photosensitizer and inhibitor of the activation of YAP.^[ [41] ^] […] Verteporfin, in its liposomal formulation Visudyne, is an approved drug for certain ophthalmological indications. In clinical trials for cancer therapy, Verteporfin is mostly used for photodynamic therapy (clinical trial identifiers: NCT03067051, NCT03033225, NCT04590664).

[5] = parameters: method as in PMID 39575977; details: cited from earlier work
[6] = parameters: method as in PMID 36632235; details: cited from earlier work
CD206 = details: cited from earlier work
Excerpt: Targeting CD206 is also promising for diagnostic purposes, as an increased number of CD206^+ cells in lymph nodes correlates with relapse onset in some cancers.^[ [6] ^] Most synthetic compounds designed to target CD206 utilize mannose as the recognition moiety.

Compound: FAM‐Ahx‐G(CTKSIPPIC)SPGAK‐OH (disulfide) [FAM‐MACTIDE, carboxyfluorescein-labelled MACTIDE]
- half‐life in tumor lysate, fold increase with respect to FAM‐mUNO [1]: 5 fold
- CD206/FAM colocalization (CD206^+ TAM; i.p., 4T1 tumors, Fiji tM2 index, n = 3 tumors): 80%
- FAM intensity per CD206^+ TAM, fold higher than FAM‐mUNO (CD206^+ TAM; i.p., 4T1 tumors, ImageJ, n = 3 mice): 10 fold
- CD206^+ TAM targeting, intravenous (CD206^+ TAM; i.v., immunostaining of 4T1 tumor sections for FAM and CD206): showed CD206^+ TAM targeting
- CD206^+ TAM targeting, oral (CD206^+ TAM; oral gavage, immunostaining of 4T1 tumor sections): targeted CD206^+ TAM
- liver accumulation [2]: does not accumulate in the liver
- blood half‐life [3]: equal to those obtained previously for FAM‐mUNO

Compound: Verteporfin
- solubility in water [4]: insoluble in water
- cell specificity of free Verteporfin [5]: not cell‐specific
- cardiotoxicity in vivo [6]: cardiotoxicity

Compound: OC[C@H]1OC(O)[C@@H](O)[C@@H](O)[C@@H]1O (stereo partly drawn) [mannose]
- affinity of mannose (CD206 recognition moiety) (CD206): millimolar range

Compound: C[C@H](NC(=O)CNC(=O)[C@@H]1CCCN1C(=O)[C@H](CO)NC(=O)[C@H](CS)NC(=O)CCCCCNC(=O)c1ccc2c(c1)C(=O)OC21c2ccc(O)cc2Oc2cc(O)ccc21)C(=O)N[C@@H](CCCCN)C(=O)O [FAM‐mUNO, reference compound] ({5FAM-Ahx}-CSPGAK-OH)
- liver accumulation [2]: does not accumulate in the liver
